Results on 9 compounds are retold here after patent US20130338199A1, “Novel Niacin Compositions for Reduction of Amyloid Beta Peptide 42 (AB42) Production and for Treatment of Alzheimer's Disease” (priority 2008, published 2013).

For data set [1], the system named is human APP overexpressing Drosophila. The data set is described as follows: Survival of human APP overexpressing Drosophila transgenic model. In kind it is in vivo, Drosophila melanogaster. Conditions: 100 mg/kg body weight/day with the food. On the procedure: The effect of cocrystal of niacin-eugenol/eugenol was tested in a Drosophila model which over expresses the human APP protein. The creation of the APP over expressing flies and other methods for these studies are as described previously by Greeve et al (See J. Neuroscience, 2004, 24:3899-3906). The targeted over/ectopic expression of APP in the brain using UAS promoter driven APP transgene, induced by a specific GAL4 trans-driver in the Drosophila model system was used. Adult flies, a total of 80 flies (4 males and 4 females per tube, 10 tubes) were fed right after their emergence and the survival was examined until the end of 9th day. The drugs to be tested were delivered with the food.

Data set [2] relates to Aβ42 production by human neuroblastoma SH-SY5Y cells. The experiment in a line: Aβ42 production by SH-SY5Y cells, sandwich ELISA of conditioned medium. As to conditions: for activity in reducing the production of Aβ42 (in words): cell-based assay. (An ELISA detects its analyte on a solid surface through an enzyme-linked reagent.)
Protocol: We used the human Neuroblastoma SH-SY5Y cells for drug testing as a model for Aβ42 production. The cells were cultured in Dulbecco's modified Eagle's medium or Dulbecco's modified Eagle's medium/Ham's F-12 medium supplemented with 10% fetal bovine serum, 100 units/ml penicillin, and 100 μg/ml streptomycin in a humidified atmosphere of 95% air, 5% CO2 at 37° C. as per suppliers instructions. […] Cell toxicity was monitored using the MTT assay and all data reported are corrected for any cell loss.
Sandwich Enzyme-Linked Immunosorbent Assay (sELISA) for Quantization of Aβ42:
The capture antibody, detection antibody and secondary antibody as well as standard purified preparations of Aβ42 were obtained from Sigma-Aldrich. Cells were cultured for 24 h in the presence or absence of compounds and the conditioned medium was subjected to sELISA.
A short description of data set [3]: In vivo pharmacokinetics (plasma and brain niacin and eugenol by HPLC). More on the design: species or system male Swiss Albino mice. Conditions: male, Swiss Albino, mouse. On the procedure: In vivo pharmacokinetic (PK) studies were conducted in male Swiss Albino mice. Niacin-Eugenol physical mixture or Niacin-Eugenol hybrid cocrystal was administered to the animals at a dose of 0.73 mmol/kg orally (n=2 mice per time point). […] Plasma was separated by centrifugation at 4000 rpm for 10 minutes and stored in ice for analysis. Animals were sacrificed at the above time points; and brains were excised, snap frozen in liquid nitrogen and stored at −80° C. Samples were analyzed by high-performance liquid chromatography (HPLC) with UV detection. […] The precipitated proteins were removed by centrifugation at 15000 rpm at 5° C. for 10 min. The supernatant was collected in HPLC vials and kept at 4° C. for analysis. 200 mg of the brain tissue was homogenized in Acetonitrile. The resultant homogenate was centrifuged at 15000 rpm for 10 minutes at 4° C. […] Pharmacokinetic parameters were calculated using WinNonLin v5.2 software. The plasma and brain samples were analyzed for Niacin and Eugenol concentrations using HPLC under the conditions shown below: […]

[4] abbreviates: Homo sapiens, SH-SY5Y, read-out: IC50 (μM) in cell based abeta assay.

Each structure is given as a SMILES string. Read-outs that look alike come from different tables or passages of the source. A value given as a limit tells only on which side of the number the result lay.

With `Oc1ccc(C=Cc2cc(O)cc(O)c2)cc1` [resveratrol], the “effect on survival compared to untreated flies” value in data set [1] (early time points) was “modest effect”. Further, in data set [1] (end of 9th day (FIG. 7)), the “effect on number of surviving flies compared to untreated flies” value is reported as “no statistically different effect”.

Take `COc1cc(C(C)=O)ccc1OC(=O)c1cccnc1` [Niacin-apocynin hybrid]: in data set [2] (setting [4]), the IC50 came out at 25.3 µM.

`C=CCc1ccc(OC(=O)c2cccnc2)c(OC)c1` [Niacin-eugenol hybrid, Nicotinic acid 4-allyl-2-methoxy-phenyl ester]: the IC50 in data set [2] (setting [4]) stood at 14 µM. The “activity in reducing the production of Aβ42 (in words)” value is listed as “most active among the series” in data set [2] and “most potent” in data set [2] (listed as niacin-eugenol ester linked hybrid). Further, in data set [3], the “increase in Tmax for eugenol compared to physical mixture” value is listed as 4 fold.

With `CCCc1ccc(OC(=O)c2cccnc2)c(OC)c1` [Niacin-dihydro eugenol hybrid], the IC50 in data set [2] (read-out: IC50 (μM) in cell based abeta assay, blocking Aβ42 secretion) is over 50 µM.

`COc1cc(C=O)ccc1OC(=O)c1cccnc1` [Niacin-vanillin hybrid, Nicotinic acid 4-formyl-2-methoxy-phenyl ester]: the half-maximal inhibitory concentration (IC50) in data set [2] (setting [4]) came to 44.6 µM.

On to `O=C(O)c1cccnc1` [niacin, pyridine-3-carboxylic acid], for which the “reduction of niacin IC50 in the presence of cinnamic acid” value in data set [2] (5 μM cinnamic acid versus niacin alone) is on record as “about 15%”. Besides, the “reduction of niacin IC50 in the presence of curcumin” value in data set [2] (5 μM curcumin versus niacin alone) is listed as “about 27%”. Besides, the “reduction of niacin IC50 in the presence of eugenol” value in data set [2] (5 μM eugenol versus niacin alone) is reported as “about 45%”. The “reduction of niacin IC50 in the presence of meclofenamic acid” value in data set [2] (5 μM meclofenamic acid versus niacin alone) is listed as “about 33%”. In addition, in data set [2] (5 and 10 μM niacin), the “inhibitory effect of niacin on Aβ42 levels in the media” value was “good effect”. The “inhibition of Aβ42 levels in the media” value in data set [2] (25 and 50 μM niacin) was 100%. The IC50 in data set [2] (Homo sapiens, SH-SY5Y, read-out: IC50 of niacin in the presence of cinnamic acid, in the presence of 5 μM of cinnamic acid) was 9.8 µM; in data set [2] (Homo sapiens, SH-SY5Y, read-out: IC50 of niacin in the presence of curcumin, in the presence of 5 μM of curcumin) it was 7.5 µM; in data set [2] (Homo sapiens, SH-SY5Y, read-out: IC50 of niacin in the presence of eugenol, in the presence of 5 μM of eugenol), 5.9 µM; in data set [2] (Homo sapiens, SH-SY5Y, read-out: IC50 of niacin in the presence of meclofenamic acid, in the presence of 5 μM of meclofenamic acid), 7 µM; in data set [2] (Homo sapiens, SH-SY5Y, read-out: IC50 of niacin's inhibitory effect on Aβ42 production, niacin alone, SH-SY5Y cells, overnight incubation) it was 10.6 µM; in data set [2] (read-out: IC50 of niacin's inhibitory effect on Aβ42 production, niacin alone, SH-SY5Y cells, overnight incubation), about 10.2 µM.

Regarding `COc1cc(/C=C/C(=O)O)ccc1OC(=O)c1cccnc1` [Niacin-ferulic acid hybrid], in data set [2] (setting [4]), the 50% inhibitory concentration (IC50) is over 50 µM.

As to `COc1ccc(/C=C\C(=O)O)cc1OC(=O)c1cccnc1` [Niacin-isofreulic acid hybrid], the IC50 in data set [2] (setting [4]) was determined as 36.8 µM.

On to `COc1cc(CC2CO2)ccc1OC(=O)c1cccnc1` (stereo not drawn) [Niacin-eugenol epoxide hybrid], for which the 50% inhibitory concentration (IC50) in data set [2] (setting [4]) came to 17.5 µM.

As usually defined, the IC50 is the concentration at which inhibition is half-maximal.
